For the assay, the target named is T1, PRKD2 (PKD2) (Homo sapiens, UniProt Q9BZL6).
T1 construct: purchased Thermo Fisher Scientific (Life Technologies) SelectScreen
In words: SelectScreen Z'LYTE. The format is biochemical. In outline: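 SelectScreen broad panel; activity (Z'LYTE, Adapta) plus binding formats. ATP: Km app for CSF1R Z'LYTE; 10 for CAMK1 Adapta. Readout = % per kinase.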

Consider 1 compound from paper PMC6934184, “Selective DNA-PKcs inhibition extends the therapeutic index of localized radiotherapy and chemotherapy” (The Journal of Clinical Investigation, 2019).

T1 sequence (Q9BZL6 whole entry): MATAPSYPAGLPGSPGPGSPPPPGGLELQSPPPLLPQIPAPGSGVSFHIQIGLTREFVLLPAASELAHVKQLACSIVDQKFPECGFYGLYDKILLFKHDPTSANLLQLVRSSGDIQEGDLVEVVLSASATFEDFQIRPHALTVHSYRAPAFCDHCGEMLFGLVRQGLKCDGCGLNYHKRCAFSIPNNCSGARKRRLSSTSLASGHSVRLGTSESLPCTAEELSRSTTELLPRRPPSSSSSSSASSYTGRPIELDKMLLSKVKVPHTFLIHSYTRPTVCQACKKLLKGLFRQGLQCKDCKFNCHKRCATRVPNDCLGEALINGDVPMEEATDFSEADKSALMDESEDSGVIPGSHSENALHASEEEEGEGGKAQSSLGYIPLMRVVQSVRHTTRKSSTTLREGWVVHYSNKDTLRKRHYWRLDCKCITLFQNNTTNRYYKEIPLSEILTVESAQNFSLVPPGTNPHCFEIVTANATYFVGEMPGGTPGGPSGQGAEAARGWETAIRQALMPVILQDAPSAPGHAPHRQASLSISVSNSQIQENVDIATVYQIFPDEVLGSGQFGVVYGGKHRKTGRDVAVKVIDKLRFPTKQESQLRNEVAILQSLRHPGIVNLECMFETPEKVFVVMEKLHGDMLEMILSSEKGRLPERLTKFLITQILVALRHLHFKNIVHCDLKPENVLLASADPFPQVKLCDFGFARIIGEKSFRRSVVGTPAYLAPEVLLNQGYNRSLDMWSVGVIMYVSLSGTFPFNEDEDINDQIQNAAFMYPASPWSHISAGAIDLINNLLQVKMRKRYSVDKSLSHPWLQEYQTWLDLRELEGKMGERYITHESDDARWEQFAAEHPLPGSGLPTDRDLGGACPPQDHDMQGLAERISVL

Take `CN(C(=O)CN1CCOCC1)c1ccc2sc3c(-c4cccc5c(=O)cc(N6CC7CCC(C6)O7)oc45)cccc3c2c1` [NU5455]: the inhibition at 1 µM was -9.1%.
